{"source": "patent US20140099262A1", "about": "“ISOTOPICALLY LABELED CDP-CHOLINE AND USES THEREOF” (BRAIN WATCH LTD., priority 2011, published 2014)", "key": {"[1]": {"test": "T1 of carbon-13 nuclei in the choline moiety of CDP-choline", "assay_type": "physicochemical", "details": "11.8 T, non-deuterated positions", "excerpt": "Furthermore, it was unexpected to find that the relaxation time of the phosphorus nuclei is longer in plasma as compared to water."}, "[2]": {"test": "31P T1 (spin-lattice relaxation) measurement of CDP-Choline phosphates by inversion recovery, in water and in plasma", "assay_type": "physicochemical", "details": "31P-NMR, 11.8T, confidence interval in brackets", "description": "[…] CDP-Choline were dissolved in 700 μL distilled water containing 10% deuterated water (85.7 mM solution) and stored in a 5 mm NMR tube in the freezer until assay.\nTwo units of expired plasma (about 250 cc per unit) from blood type AB and O were obtained frozen from the blood bank section at Hadassah Medical Center. Plasma was defrosted in the refrigerator overnight. 565 μl of plasma solution was mixed with 75 IA distilled water and transferred to a 5 mm NMR tube. The solution was kept on ice until NMR analysis the same day. 60 μl CDP-Choline was added to the solution and ^31P-NMR was recorded 37 s from the time CDP-Choline mixed with the plasma solutions in the NMR tube. The Ionic strength of the solution was 315.04 mM and the concentration of CDP-Choline 15.4 mM.\nSpectra were obtained on an 11.8T high-resolution spectrometer (Varian, Palo Alto, Calif., USA) with a 5 mm direct multi-nuclei probe.\nT1 measurements were performed for CDP-Choline in water and in plasma with the standard inversion recovery pulse sequence. The data were fitted to the standard inversion recovery equation using the MATLAB software (The MathWorks Inc., Natick, Mass., USA)."}, "[3]": {"details": "intravenous administration; cited from earlier work"}}, "note": "Marks after values point to notes of the source that are not given here."}
{"smiles": "C[N+](C)(C)CCOP(=O)(O)OP(=O)(O)OC[C@H]1O[C@@H](n2ccc(N)nc2=O)[C@H](O)[C@@H]1O", "note": "[CDP-Choline, 5′-O-[hydroxy({hydroxy[2-(trimethylammonio)ethoxy]phosphoryl}oxy)phosphoryl]cytidine]", "values": [{"measurement": "T1 of the carbon-13 nuclei in the choline moiety", "setting": "[1]", "result": "2 to 3", "unit": "s"}, {"measurement": "T1 of phosphate P1", "setting": "[2]; H2O, 85.7 mM", "result": "1.2 (0.9-1.5) s"}, {"measurement": "T1 of phosphate P2", "setting": "[2]; H2O, 85.7 mM", "result": "1.4 (1.3-1.6) s"}, {"measurement": "T1 of phosphate P1", "setting": "[2]; plasma, 15.4 mM", "result": "2.0 (1.9-2.0)* s"}, {"measurement": "T1 of phosphate P2", "setting": "[2]; plasma, 15.4 mM", "result": "2.6 (2.4-2.8) s"}, {"measurement": "LD0 of CDP-Choline compared to choline", "setting": "[3]", "result": "about 40 fold"}]}
